Source: ChEMBL document CHEMBL5042500 (J Med Chem, 2022)
pIC50: −log10 of the molar value. In brackets after ≈: the same amount, converted by molar mass. One block for each compound: values may come before it. Activity calls are given as the source filed them. No cut-off for these calls is given here.

Legend:
[1] = Metabolic stability in Sprague-Dawley rat liver microsomes assessed as compound degradation in presence of NADPH measured after 20 mins; type: ADME, Microsome; details: read-out: Drug degradation
[2] = Aqueous solubility of the compound at pH 7.4; type: physicochemical
[3] = Metabolic stability in CD1 mouse liver microsomes assessed as compound degradation in presence of NADPH measured after 20 mins; type: ADME, Microsome; details: read-out: Drug degradation
[4] = Inhibition of rat SGK1 in presence 500 uM presence of ATP
[5] = target: T1, Serine/threonine-protein kinase Sgk1 (Mus musculus, UniProt Q9WVC6); experiment: Inhibition of mouse SGK1 in presence 500 uM presence of ATP
T1 sequence (Q9WVC6 whole entry): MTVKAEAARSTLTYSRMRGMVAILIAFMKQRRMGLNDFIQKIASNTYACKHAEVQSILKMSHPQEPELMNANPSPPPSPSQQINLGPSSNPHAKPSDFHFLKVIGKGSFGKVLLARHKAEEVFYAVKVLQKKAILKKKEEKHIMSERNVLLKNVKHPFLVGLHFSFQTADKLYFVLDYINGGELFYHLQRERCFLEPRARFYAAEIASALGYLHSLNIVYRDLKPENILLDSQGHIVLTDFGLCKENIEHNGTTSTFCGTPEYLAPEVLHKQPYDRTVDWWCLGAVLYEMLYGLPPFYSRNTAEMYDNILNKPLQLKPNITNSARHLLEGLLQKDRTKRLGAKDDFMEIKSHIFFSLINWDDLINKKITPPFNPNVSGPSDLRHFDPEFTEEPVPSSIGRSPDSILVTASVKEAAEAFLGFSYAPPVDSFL

[6] = Permeability in human Caco2 cells at 20 uM incubated for 120 mins by ESI-MS/MS analysis; type: ADME, cell-based; details: Caco-2, read-out: permeability
CYP3A4 = CYP3A4 (Homo sapiens, UniProt P08684); experiment: Inhibition of CYP3A4 in human liver microsomes by measuring maximum efficacy; type: ADME
CYP3A4, sequence (P08684 whole entry): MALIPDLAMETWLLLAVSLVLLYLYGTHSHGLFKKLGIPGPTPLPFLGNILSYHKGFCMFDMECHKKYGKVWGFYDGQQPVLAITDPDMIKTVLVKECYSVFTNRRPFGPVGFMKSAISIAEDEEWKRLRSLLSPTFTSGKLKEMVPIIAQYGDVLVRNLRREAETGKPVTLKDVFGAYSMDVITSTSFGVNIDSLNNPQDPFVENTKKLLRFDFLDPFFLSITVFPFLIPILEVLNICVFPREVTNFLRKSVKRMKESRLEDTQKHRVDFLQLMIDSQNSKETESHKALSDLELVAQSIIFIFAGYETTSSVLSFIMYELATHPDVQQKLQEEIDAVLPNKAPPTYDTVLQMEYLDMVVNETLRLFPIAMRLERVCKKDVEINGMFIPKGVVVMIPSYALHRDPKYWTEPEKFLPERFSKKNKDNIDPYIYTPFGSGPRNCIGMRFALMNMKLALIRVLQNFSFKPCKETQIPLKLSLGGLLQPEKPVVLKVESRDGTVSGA

[7] = Distribution coefficient, logD of compound at pH 7.4 by chromatographic analysis; type: physicochemical; details: octanol/water
[8] = Metabolic stability in human liver microsomes assessed as compound degradation in presence of NADPH measured after 20 mins; type: ADME, Microsome; details: read-out: Drug degradation
Femur [9] = experiment: (§1) Induction of chondrogenesis in femoral head cartilage isolated from C57BL/6 mouse model of osteoarthritis assessed as reduction in intensity of collagen type x staining at 2 uM incubated for 2 weeks in hypertrophic condition and twice for week medium is changed by immunohistochemical staining based analysis; type: functional, tissue-based
Salmonella typhimurium [10] = experiment: Mutagenicity in Salmonella typhimurium […] by ames test; type: toxicity, organism-based; details: salmonella enterica subsp. enterica serovar typhimurium
[11] = Chemical stability of the compound at pH 7.4 measured after 24 hrs; type: physicochemical; details: buffer, read-out: Stability
hERG (KCNH2) [12] = target: T2, hERG (KCNH2) (Homo sapiens, UniProt Q12809); experiment: Inhibition of human ERG at 10 uM; type: toxicity
T2 sequence (Q12809 whole entry): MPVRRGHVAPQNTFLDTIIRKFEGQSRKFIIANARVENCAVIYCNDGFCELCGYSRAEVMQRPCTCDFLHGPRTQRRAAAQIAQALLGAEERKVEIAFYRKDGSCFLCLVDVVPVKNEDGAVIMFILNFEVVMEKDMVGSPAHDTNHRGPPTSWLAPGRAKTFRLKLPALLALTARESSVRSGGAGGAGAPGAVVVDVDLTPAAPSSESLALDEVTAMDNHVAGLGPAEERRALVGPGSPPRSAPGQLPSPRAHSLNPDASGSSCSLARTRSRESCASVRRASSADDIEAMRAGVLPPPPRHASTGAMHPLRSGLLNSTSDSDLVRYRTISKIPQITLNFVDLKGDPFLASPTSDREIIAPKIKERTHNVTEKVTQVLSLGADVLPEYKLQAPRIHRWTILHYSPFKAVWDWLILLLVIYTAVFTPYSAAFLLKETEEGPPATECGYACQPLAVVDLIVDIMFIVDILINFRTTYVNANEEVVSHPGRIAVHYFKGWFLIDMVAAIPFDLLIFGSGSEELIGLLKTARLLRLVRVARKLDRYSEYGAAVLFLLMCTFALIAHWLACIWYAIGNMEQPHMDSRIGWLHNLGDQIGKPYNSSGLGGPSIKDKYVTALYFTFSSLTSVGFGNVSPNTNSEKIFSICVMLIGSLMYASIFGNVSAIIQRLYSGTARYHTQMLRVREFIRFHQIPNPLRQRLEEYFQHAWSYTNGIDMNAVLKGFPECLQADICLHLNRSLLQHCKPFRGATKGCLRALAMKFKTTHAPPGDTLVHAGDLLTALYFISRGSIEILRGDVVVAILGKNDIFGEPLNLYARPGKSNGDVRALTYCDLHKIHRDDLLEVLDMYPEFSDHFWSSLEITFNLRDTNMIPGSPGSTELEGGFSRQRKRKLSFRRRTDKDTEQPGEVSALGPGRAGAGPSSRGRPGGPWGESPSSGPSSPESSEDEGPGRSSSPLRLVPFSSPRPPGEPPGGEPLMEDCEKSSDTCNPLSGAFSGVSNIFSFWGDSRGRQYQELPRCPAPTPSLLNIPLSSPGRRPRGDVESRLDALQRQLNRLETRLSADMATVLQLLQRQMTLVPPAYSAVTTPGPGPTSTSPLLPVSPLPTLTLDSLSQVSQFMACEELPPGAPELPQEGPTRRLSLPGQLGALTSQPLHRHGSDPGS

Femur [13] = experiment: Induction of chondrogenesis in femoral head cartilage isolated from C57BL/6 mouse model of osteoarthritis assessed as reduction in intensity of collagen type x staining incubated for 2 weeks in hypertrophic condition and twice for week medium is changed by immunohistochemical staining based analysis; type: functional, tissue-based
Femur [14] = experiment: as §1, with “at 10” for “at 2”; type: functional, tissue-based
Salmonella typhimurium [15] = experiment: Mutagenicity in Salmonella typhimurium […] in presence of S9 fraction by ames test; type: toxicity, organism-based; details: salmonella enterica subsp. enterica serovar typhimurium
Cytochrome P450 3A4 [16] = target: T3, Cytochrome P450 3A4 (Homo sapiens, UniProt P08684); experiment: Inhibition of CYP3A4 in human liver microsomes using testosterone as substrate incubated for 30 mins by LC-MS/MS analysis; type: ADME
T3 sequence (P08684 whole entry): as the sequence (P08684 whole entry) above

hERG (KCNH2) [17] = target: T2, hERG (KCNH2); experiment: Inhibition of human ERG at 1 uM relative to control; type: toxicity
[18] = Effect on chondrocyte hypertrophic differentiation mouse ATDC-5 cells assessed as inhibition of […] gene expression incubated for 2 weeks followed by compound added and every 3 days medium is changed measured after 2 weeks by RT-qPCR analysis; type: functional, cell-based
Cytochrome P450 3A4 [19] = target: T3, Cytochrome P450 3A4; experiment: Inhibition of CYP3A4 in human liver microsomes using midazolam as substrate incubated for 10 mins by LC-MS/MS analysis; type: ADME
[20] = target: Ribosomal protein S6 kinase alpha-1 (Homo sapiens) (UniProt Q15418); experiment: Inhibition of RSK1 kinase (unknown origin) at 0.1 uM
Ribosomal protein S6 kinase alpha-1 (Homo sapiens), sequence (Q15418 whole entry): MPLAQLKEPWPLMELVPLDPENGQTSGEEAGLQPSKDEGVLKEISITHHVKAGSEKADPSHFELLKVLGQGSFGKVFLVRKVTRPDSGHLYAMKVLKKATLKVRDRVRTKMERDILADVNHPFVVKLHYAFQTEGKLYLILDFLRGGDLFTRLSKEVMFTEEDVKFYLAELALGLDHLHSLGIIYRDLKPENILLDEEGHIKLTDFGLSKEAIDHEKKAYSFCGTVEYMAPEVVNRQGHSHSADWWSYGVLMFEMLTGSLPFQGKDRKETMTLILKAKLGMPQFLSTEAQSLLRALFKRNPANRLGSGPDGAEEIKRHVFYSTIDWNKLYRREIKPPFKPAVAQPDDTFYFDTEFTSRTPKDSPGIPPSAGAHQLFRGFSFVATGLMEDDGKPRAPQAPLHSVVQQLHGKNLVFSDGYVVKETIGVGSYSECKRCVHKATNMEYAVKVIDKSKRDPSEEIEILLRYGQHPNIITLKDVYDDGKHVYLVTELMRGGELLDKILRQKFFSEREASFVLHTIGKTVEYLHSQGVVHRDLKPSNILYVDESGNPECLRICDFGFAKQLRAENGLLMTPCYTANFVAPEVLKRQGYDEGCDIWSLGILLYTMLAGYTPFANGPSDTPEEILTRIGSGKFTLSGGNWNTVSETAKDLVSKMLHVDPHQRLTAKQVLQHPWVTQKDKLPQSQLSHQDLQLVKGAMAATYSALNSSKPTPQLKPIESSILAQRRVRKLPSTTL

[21] = target: T4, Serine/threonine-protein kinase Sgk1 (Homo sapiens, UniProt O00141); experiment: Inhibition of recombinant human SGK1 expressed in baculovirus expression system using 5-carboxyfluorescein -RPRAATF-NH2 as substrate preincubated for 30 mins followed by substrate addition in presence of 500 uM ATP and measured after 60 mins by microfluidics assay
T4 sequence (O00141 whole entry): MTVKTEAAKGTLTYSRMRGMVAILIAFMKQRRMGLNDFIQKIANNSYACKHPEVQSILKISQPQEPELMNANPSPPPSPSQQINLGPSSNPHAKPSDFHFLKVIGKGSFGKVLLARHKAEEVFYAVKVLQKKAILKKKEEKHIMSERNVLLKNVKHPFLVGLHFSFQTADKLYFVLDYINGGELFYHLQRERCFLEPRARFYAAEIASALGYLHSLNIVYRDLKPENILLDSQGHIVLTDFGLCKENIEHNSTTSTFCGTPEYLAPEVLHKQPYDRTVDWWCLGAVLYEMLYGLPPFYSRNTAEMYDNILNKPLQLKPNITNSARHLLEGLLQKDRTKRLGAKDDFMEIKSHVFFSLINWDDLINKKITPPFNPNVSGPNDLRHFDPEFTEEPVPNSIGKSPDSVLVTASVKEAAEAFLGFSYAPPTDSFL

[22] = Half life in C57BL/6 mouse plasma at 3 mg/kg, iv; type: ADME, organism-based
[23] = Tmax in Lewis rat plasma at 30 mg/kg, po measured after 8 hrs; type: ADME, organism-based
[24] = Ratio of AUC(0 to 24 hrs) in femoral head to plasma in rat measured after 1 hrs; type: ADME, Bone/Plasma; details: read-out: Selectivity ratio
[25] = Cmax in Lewis rat plasma at 30 mg/kg, po measured after 8 hrs; type: ADME, organism-based; set-up: route oral, time 8 hrs, dose 30 mg/kg
[26] = AUC (0 to 24 hrs) in C57BL/6 mouse at 30 mg/kg, po; type: ADME, organism-based; set-up: time < 24 hr, route oral, dose 30 mg/kg; details: in vivo
[27] = Initial plasma concentration in C57BL/6 mouse at 3 mg/kg, iv; type: ADME, organism-based
[28] = target: T4, Serine/threonine-protein kinase Sgk1; experiment: Inhibition of recombinant human SGK1 expressed in baculovirus expression system using 5-carboxyfluorescein -RPRAATF-NH2 as substrate preincubated for 30 mins followed by substrate addition in presence of 10 uM ATP and measured after 60 mins by microfluidics assay
[29] = AUC (0 to 24 hrs) in C57BL/6 mouse at 3 mg/kg, iv; type: ADME, organism-based; set-up: time < 24 hr, route intravenous, dose 3 mg/kg; details: in vivo
Homo sapiens = species: Homo sapiens; experiment: Inhibition of p70S6Kb kinase (unknown origin) at 0.1 uM
[30] = AUC (0 to 24 hrs) in Lewis rat plasma at 30 mg/kg, po measured after 8 hrs; type: ADME, organism-based; set-up: route oral, dose 30 mg/kg, time 8 hrs
[31] = AUC (0 to 24 hrs) in Lewis rat femoral head cartilage at 30 mg/kg, po measured after 8 hrs; type: ADME, organism-based, Femur; set-up: route oral, dose 30 mg/kg, time 8 hrs
[32] = Tmax in Lewis rat femoral head cartilage at 30 mg/kg, po measured after 8 hrs; type: ADME, organism-based, Femur
[33] = Cmax in Lewis rat femoral head cartilage at 30 mg/kg, po measured after 8 hrs; type: ADME, organism-based, Femur; set-up: route oral, time 8 hrs, dose 30 mg/kg
[34] = Oral bioavailability in C57BL/6 mouse at 30 mg/kg; type: ADME, organism-based; details: in vivo
[35] = Tmax in C57BL/6 mouse plasma at 30 mg/kg, po; type: ADME, organism-based
[36] = Solubility of the compound in FeSSIF at pH 5.0; type: physicochemical
[37] = Ratio of AUC(0 to 24 hrs) in femoral head to plasma in rat measured after 24 hrs; type: ADME, Bone/Plasma; details: read-out: Selectivity ratio
[38] = Intrinsic clearance in human hepatocytes assessed per 10^-6 cells; type: ADME, cell-based, Hepatocyte
[39] = Half life in C57BL/6 mouse plasma at 30 mg/kg, po measured after 8 hrs; type: ADME, organism-based
[40] = Cmax in C57BL/6 mouse plasma at 30 mg/kg, po measured after 8 hrs; type: ADME, organism-based; set-up: route oral, time 8 hrs, dose 30 mg/kg
[41] = Volume of distribution at steady state in C57BL/6 mouse at 3 mg/kg, iv qd; type: ADME, organism-based; details: in vivo, read-out: Vdss
[42] = Intrinsic clearance in C57BL/6 mouse at 3 mg/kg, iv; type: ADME, organism-based; details: in vivo

metabolised at 20 min [1]: 7%
solubility [2]: 4 µg/mL (≈ 7.72 µM)
metabolised at 20 min [3]: 6%
pIC50 [4]: 6.45
pIC50 [5]: 6.60
Papp at 2 h, 20 µM [6]: 8.6 ×10⁻⁶ cm/s
Emax (CYP3A4): 13%
chromatographic logD [7]: 2.8
metabolised at 20 min [8]: 13%
remaining at 24 h [11]: 100%
pIC50 (Cytochrome P450 3A4 [16]): < 5.52
pIC50 (Cytochrome P450 3A4 [19]): < 5.52
inhibition [20]: 57%
Compound: O=S(=O)(Nc1ccc(-c2nc(O[C@H]3CC[C@H](O)CC3)c3cn[nH]c3n2)cc1)c1cc(Cl)ccc1F
Activity (Femur [9]): inactive
Activity (Salmonella typhimurium [10]): Non-Toxic
inhibition at 10 µM (hERG (KCNH2) [12]): 65%
Activity (Femur [13]): Active
Activity (Femur [14]): Active
Activity (Salmonella typhimurium [15]): Non-Toxic
inhibition at 1 µM (hERG (KCNH2) [17]): 0%
pIC50 [18]: 7.30

metabolised at 20 min [1]: 12%
pIC50 [21]: 8.52
half-life [22]: 2.1 h
solubility [2]: < 1 µg/mL
Tmax [23]: 8 h
Cmax [25]: 4200 ng/mL
metabolised at 20 min [3]: 15%
pIC50 [4]: 6.65
pIC50 [5]: 6.77
Papp at 2 h, 20 µM [6]: 4.6 ×10⁻⁶ cm/s
AUC(0-t) at 24 h [26]: 22800 ng·h/mL
Emax (CYP3A4): 0%
chromatographic logD [7]: 1.3
metabolised at 20 min [8]: 9%
C0 [27]: 2200 ng/mL
pIC50 [28]: 8.70
AUC(0-t) at 24 h [29]: 3200 ng·h/mL
remaining at 24 h [11]: 100%
inhibition (Homo sapiens): 58%
AUC(0-t) at 8 h [30]: 60100 ng·h/mL
AUC(0-t) at 8 h [31]: 16900 ng·h/mL
Tmax [32]: 8 h
Cmax [33]: 1200 ng/g
pIC50 (Cytochrome P450 3A4 [16]): < 4.52
bioavailability [34]: 72%
Tmax [35]: 3.3 h
solubility [36]: 281 µg/mL (≈ 503 µM)
CLH [38]: 0.042 mL/h
pIC50 (Cytochrome P450 3A4 [19]): < 4.52
inhibition [20]: 64%
half-life [39]: 4.8 h
Cmax [40]: 2200 ng/mL
Vd [41]: 2.4 L/kg
CL [42]: 17 mL/min/kg
Compound: Cc1n[nH]c2nc(-c3ccc(NS(=O)(=O)c4cc(Cl)ccc4F)cc3)nc(OC3CCN(C(C)C)CC3)c12
Kp at 1 h [24]: 0.1
Activity (Salmonella typhimurium [10]): Non-Toxic
inhibition at 10 µM (hERG (KCNH2) [12]): 91%
Activity (Salmonella typhimurium [15]): Non-Toxic
inhibition at 1 µM (hERG (KCNH2) [17]): 60%
Kp at 24 h [37]: 1.1
pIC50 [18]: 7.15
